# Data taken from US8916526B2, “Flavanone derivative” (National University Corporation Okayama University, priority 2009, dated 2014).
# Tests used:
# VISA Mu50 = test: In vitro infectivity assay (MIC), broth dilution, Exp. Ex. 1-1; assay type: cell-based, Staphylococcus aureus; conditions: VISA Mu50, Mueller-Hinton broth, 35° C., 24 hours
# Description: (§1) The antibacterial activities were measured based on broth dilution techniques of international standards (Clinical Laboratory Standards Institute: CLSI). The activities were shown by minimum inhibitory concentrations (MICs) determined by inoculating the above-mentioned strains at a concentration of about 10^5 […] into Mueller-Hinton broth (manufactured by Difco) containing 0.85% NaCl in 96-well microplates and incubating the plates at 35° C. for 24 hours. Measurement was carried out three times.
# (§2) The antibacterial activities of the compounds of the present invention against various strains such as methicillin-resistant Staphylococcus aureus (MRSA), vancomycin intermediate-resistant Staphylococcus aureus (VISA), methicillin-sensitive Staphylococcus aureus (MSSA), and vancomycin-resistant enterococci (VRE) were examined. Of the bacteria used in MIC measurement in this test example, clinical bacteria of MRSA (OM481 strain and OM584 strain) were supplied from Okayama University Hospital (Japan). An MRSA strain N315, a vancomycin intermediate-resistant Staphylococcus aureus (VISA) strain Mu50, and a methicillin-sensitive Staphylococcus aureus (MSSA) strain FDA 209P were used as controls. Vancomycin-resistant enterococcus (VRE) strains NCTC 12201 and FN-1 were supplied from the National Institute of Infectious Disease (Japan).
# MRSA OM481 = test: as above; assay type: cell-based, Staphylococcus aureus; conditions: MRSA OM481, Mueller-Hinton broth, 35° C., 24 hours; for MIC: Staphylococcus aureus, read-out: MIC MRSA OM481
# Description: as §1, §2
# MRSA N315 = test: as above; assay type: cell-based, Staphylococcus aureus; conditions: MRSA N315, Mueller-Hinton broth, 35° C., 24 hours; for MIC: Staphylococcus aureus, read-out: MIC MRSA N315
# Description: as §1, §2
# MRSA OM58 = test: as above; assay type: cell-based, Staphylococcus aureus; conditions: MRSA OM58, Mueller-Hinton broth, 35° C., 24 hours; for MIC: Staphylococcus aureus, read-out: MIC MRSA OM58
# Description: as §1, §2
# MSSA FDA 209P = test: as above; assay type: cell-based, Staphylococcus aureus; conditions: MSSA FDA 209P, Mueller-Hinton broth, 35° C., 24 hours; for MIC: Staphylococcus aureus, read-out: MIC MSS 209P
# Description: as §1, §2
# VRE FN-1 = test: as above; assay type: cell-based, enterococci; conditions: VRE FN-1, Mueller-Hinton broth, 35° C., 24 hours
# Description: as §1, §2
# VRE NCTC12201 = test: as above; assay type: cell-based, enterococci; conditions: VRE NCTC12201, Mueller-Hinton broth, 35° C., 24 hours
# Description: as §1, §2
# [1] = biological target: T1, DNA gyrase of Escherichia coli (Escherichia coli, UniProt P0AES4+P0AES6); test: DNA gyrase inhibition (supercoiling assay kit), Exp. Ex. 1-2; assay type: biochemical; conditions: E. coli DNA gyrase supercoiling, relaxed pBR322, 37° C., 30 minutes; for IC50: read-out: Gyrase inhibitory activity IC50 (converted)
# T1 construct: purchased John Innes Enterprises #K0001
# Description: (§3) As a kit for measurement of DNA gyrase of Escherichia coli, a product purchased from John Innes Enterprises (Gyrase Supercoiling assay kit #K0001) was used. Relaxed DNA was modified with gyrase into supercoiled DNA, and reaction products were separated by electrophoresis depending on the sizes of the molecular weights to examine anti-gyrase effects (IC50). One unit (1 U) of DNA gyrase and […] of relaxed pBR322 DNA were added to […] of the reaction solution, and the mixture was allowed to react at 37° C. for 30 minutes in the presence of 35 mM Tris-HCl (pH 7.5), 24 mM KCl, 4 mM MgCl2, 2 mM DTT, 1.8 mM spermidine, 1 mM ATP, 6.5% (w/v) glycerol, and 0.1 mg/ml BSA. The reactions were stopped using […] of a reaction stop solution (40% sucrose, 100 mM Tris-HCl (pH 7.5), 1 mM EDTA, 0.5 mg/ml bromophenol blue).
# Escherichia coli K-12 = test: Antibacterial activity (MIC) against Gram-negative strains, microdilution; assay type: cell-based; conditions: K12, MIC after 24 h, read-out: MIC (Gram-nagative) K-12
# Description: as §1
# [2] = system: Pseodomonas aeruginosa PAOI; test: as above; assay type: cell-based; conditions: MIC after 24 h, read-out: MIC (Gram-nagative) PAO1
# Description: as §1
# [3] = system: Streptococcus pneumoniae R6; test: In vitro infectivity assay (MIC), Exp. Ex. 2-1; assay type: cell-based; conditions: Streptococcus pneumoniae, R6, 24 h, read-out: MIC S. Pneumoniae R6
# E. coli DNA gyrase = biological target: T2, E. coli DNA gyrase (Escherichia coli, UniProt P0AES4+P0AES6); test: DNA gyrase inhibition (supercoiling kit), Exp. Ex. 2-2; assay type: biochemical
# T2 construct: purchased John Innes Enterprises #K0001
# Description: as §3, with “1” for “One”
# [4] = system: Methicillin-resistant S. aureus N315; test: In vitro infectivity assay (MIC), Exp. Ex. 2-1; assay type: cell-based, Staphylococcus aureus; conditions: Staphylococcus aureus, MRSA; Gram-positive; microdilution, MIC after 24 h; read-out: MIC MRSA N315
# Description: as §1
# as §2, with “vancomycin-resistant enterococci (VRE),” for “methicillin-resistant Staphylococcus aureus (MRSA),”, “(VISA), methicillin-resistant Staphylococcus aureus (MRSA), and” for “(VISA),”, “(MSSA)” for “(MSSA), and vancomycin-resistant enterococci (VRE)”
# [5] = system: Methicillin-resistant S. aureus OM481; test: In vitro infectivity assay (MIC), Exp. Ex. 2-1; assay type: cell-based, Staphylococcus aureus; conditions: Staphylococcus aureus, MRSA; Gram-positive; microdilution, MIC after 24 h; read-out: MIC MRSA OM481
# Description: as §1
# as §2, with “vancomycin-resistant enterococci (VRE),” for “methicillin-resistant Staphylococcus aureus (MRSA),”, “(VISA), methicillin-resistant Staphylococcus aureus (MRSA), and” for “(VISA),”, “(MSSA)” for “(MSSA), and vancomycin-resistant enterococci (VRE)”
# [6] = system: Methicillin sensitive S. aureus 209P; test: In vitro infectivity assay (MIC), Exp. Ex. 2-1; assay type: cell-based, Staphylococcus aureus; conditions: Staphylococcus aureus, 209P / MSSA; Gram-positive; microdilution, MIC after 24 h; read-out: MIC MSSA 209P
# Description: as §1
# as §2, with “vancomycin-resistant enterococci (VRE),” for “methicillin-resistant Staphylococcus aureus (MRSA),”, “(VISA), methicillin-resistant Staphylococcus aureus (MRSA), and” for “(VISA),”, “(MSSA)” for “(MSSA), and vancomycin-resistant enterococci (VRE)”
# [7] = system: Methicillin-resistant S. aureus COL; test: In vitro infectivity assay (MIC), Exp. Ex. 2-1; assay type: cell-based, Staphylococcus aureus; conditions: Staphylococcus aureus, MRSA; Gram-positive; microdilution, MIC after 24 h
# Description: as §1
# as §2, with “vancomycin-resistant enterococci (VRE),” for “methicillin-resistant Staphylococcus aureus (MRSA),”, “(VISA), methicillin-resistant Staphylococcus aureus (MRSA), and” for “(VISA),”, “(MSSA)” for “(MSSA), and vancomycin-resistant enterococci (VRE)”
# [8] = system: Methicillin-resistant S. aureus OM584; test: In vitro infectivity assay (MIC), Exp. Ex. 2-1; assay type: cell-based, Staphylococcus aureus; conditions: Staphylococcus aureus, MRSA; Gram-positive; microdilution, MIC after 24 h; read-out: MIC MRSA OM584
# Description: as §1
# as §2, with “vancomycin-resistant enterococci (VRE),” for “methicillin-resistant Staphylococcus aureus (MRSA),”, “(VISA), methicillin-resistant Staphylococcus aureus (MRSA), and” for “(VISA),”, “(MSSA)” for “(MSSA), and vancomycin-resistant enterococci (VRE)”
# T1 sequence (P0AES4 whole entry, one chain of several): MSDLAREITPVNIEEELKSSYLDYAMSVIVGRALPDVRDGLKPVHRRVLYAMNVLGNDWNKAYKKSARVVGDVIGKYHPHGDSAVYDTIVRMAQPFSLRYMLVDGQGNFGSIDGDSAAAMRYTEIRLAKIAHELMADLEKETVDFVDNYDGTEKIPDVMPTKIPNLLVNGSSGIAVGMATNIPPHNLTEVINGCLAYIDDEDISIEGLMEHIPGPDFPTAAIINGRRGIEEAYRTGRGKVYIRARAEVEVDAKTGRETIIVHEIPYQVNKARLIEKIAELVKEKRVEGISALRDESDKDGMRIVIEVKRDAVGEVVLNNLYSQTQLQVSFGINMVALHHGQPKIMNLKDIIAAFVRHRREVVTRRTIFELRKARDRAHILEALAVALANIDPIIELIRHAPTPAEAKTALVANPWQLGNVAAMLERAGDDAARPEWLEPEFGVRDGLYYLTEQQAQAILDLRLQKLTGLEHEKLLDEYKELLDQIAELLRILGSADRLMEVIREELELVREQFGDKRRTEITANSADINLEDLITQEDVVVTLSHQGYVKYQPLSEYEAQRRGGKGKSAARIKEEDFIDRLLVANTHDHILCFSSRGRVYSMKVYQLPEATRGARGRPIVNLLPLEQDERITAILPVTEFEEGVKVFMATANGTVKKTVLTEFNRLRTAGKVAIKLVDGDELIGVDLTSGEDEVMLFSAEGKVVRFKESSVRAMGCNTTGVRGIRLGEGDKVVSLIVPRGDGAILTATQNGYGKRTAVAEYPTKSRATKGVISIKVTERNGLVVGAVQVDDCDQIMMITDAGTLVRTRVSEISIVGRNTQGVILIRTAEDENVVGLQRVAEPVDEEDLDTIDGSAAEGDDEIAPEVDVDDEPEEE
# T2 sequence (P0AES4 whole entry, one chain of several): as above
Compound,melting point,MIC VISA Mu50 (VISA Mu50),MIC MRSA OM481 (MRSA OM481),MIC MRSA N315 (MRSA N315),MIC MRSA OM58 (MRSA OM58),MIC MSS 209P (MSSA FDA 209P),MIC VRE FN-1 (VRE FN-1),MIC VRE NCTC 12201 (VRE NCTC12201),Gyrase inhibitory activity IC50 [1],also measured
"O=C(CCc1ccc(F)cc1)c1cc(O)c2c(=O)c(C(=O)CCc3ccc(F)cc3)c(-c3ccc(O)c(O)c3)oc2c1 [Compound 2b, 2-(3′,4′-Dihydroxyphenyl)-5-hydroxy-3,7-di-(4-fluorophenylpropanoyl)-4H-chromen-4-one]",119 to 121 °C,,,,,,,,,
"CCOc1ccc(CCC(=O)O[C@H]2[C@H](Oc3c(-c4ccc(O)c(O)c4)oc4cc(O)cc(O)c4c3=O)O[C@H](CO)[C@@H](O)[C@@H]2OC(=O)CCc2ccc(OCC)cc2)cc1 [Compound 15b, 2-(3′,4′-Dihydroxy)-5,7-dihydroxy-3-β-D-(2″,3″-di-p-ethoxyphenylethylcarboxy)glucosyl-4H-chromen-4-one]",,4 µg/mL,4 µg/mL,2 µg/mL,8 µg/mL,2 µg/mL,8 µg/mL,8 µg/mL,9.23 µg/mL,
"O=C(O[C@H]1[C@H](Oc2c(-c3ccc(O)c(O)c3)oc3cc(O)cc(O)c3c2=O)O[C@H](CO)[C@@H](O)[C@@H]1OC(=O)c1ccc(F)cc1)c1ccc(F)cc1 [Compound 15g, 2-(3′,4′-Dihydroxy)-5,7-dihydroxy-3-β-D-(2″,3″-di-p-flurobenzoyloxy)glucosyl-4H-chromen-4-one]",,2 µg/mL,16 µg/mL,2 µg/mL,16 µg/mL,2 µg/mL,8 µg/mL,8 µg/mL,4.25 µg/mL,
"CCn1cc(C(=O)O)c(=O)c2cc(F)c(N3CCNCC3)cc21 [Norfloxacin, norfloxacin, reference compound]",,,,,,,,,,MIC (Escherichia coli K-12): 0.25 µg/mL; MIC [2]: 0.25 µg/mL; MIC (MRSA OM481): 128 µg/mL; MIC (MRSA N315): 2 µg/mL; MIC (MRSA OM58): 64 µg/mL; MIC (MSSA FDA 209P): 0.5 µg/mL; MIC [3]: 0.25 µg/mL; IC50 [1]: 908 nM; IC50 (E. coli DNA gyrase): 90 nM; MIC [4]: 2 µg/mL; MIC [5]: 64 µg/mL; MIC [6]: 0.5 µg/mL; MIC [7]: 1 µg/mL; MIC [8]: 128 µg/mL
"O=C(CCc1ccc(O)cc1)O[C@H]1[C@H](Oc2c(-c3ccc(O)c(O)c3)oc3cc(O)cc(O)c3c2=O)O[C@H](CO)[C@@H](O)[C@@H]1OC(=O)CCc1ccc(O)cc1 [Compound 15a, 2-(3′,4′-Dihydroxy)-5,7-dihydroxy-3-β-D-(2″,3″-di-p-hydroxyphenylethylcarboxy)glucosyl-4H-chromen-4-one]",,4 µg/mL,4 µg/mL,4 µg/mL,4 µg/mL,4 µg/mL,8 µg/mL,8 µg/mL,2.54 µg/mL,
"Cc1ccc(CCC(=O)c2cc(O)c3c(=O)c(C(=O)CCc4ccc(C)cc4)c(-c4ccc(O)c(O)c4)oc3c2)cc1 [Compound 2a, 2-(3′,4′-Dihydroxyphenyl)-5-hydroxy-3,7-di-(4-methylphenylpropanoyl)-4H-chromen-4-one]",105 to 107 °C,,,,,,,,,
"O=c1c([C@@H]2O[C@H](CO)[C@H](O)[C@H](O)[C@H]2O)c(-c2ccc(O)c(O)c2)oc2cc([C@@H]3O[C@H](CO)[C@H](O)[C@H](O)[C@H]3O)cc(O)c12 [Compound 6, 2-(3′,4′-Dihydroxyphenyl)-5-hydroxy-3,7-di-β-D-galactosyl-4H-chromen-4-one]",215 to 217 °C,,,,,,,,,
"O=c1c(O[C@@H]2O[C@H](CO)[C@@H](O)[C@H](O)[C@H]2O)c(-c2ccc(O)c(O)c2)oc2cc(O)cc(O)c12 [Compound 17, 2-(3′4′-Dihydroxy)-5,7-dihydroxy-3-β-D-glucosyl-4H-chromen-4-one]",,,,,,,,,,"MIC (VISA Mu50; Staphylococcus aureus, read-out: MIC VISA Mu50): > 128 µg/mL; MIC (MRSA OM481): > 128 µg/mL; MIC (MRSA N315): > 128 µg/mL; MIC (MRSA OM58): > 128 µg/mL; MIC (MSSA FDA 209P): > 128 µg/mL; MIC (VRE FN-1; Enterococcus, read-out: MIC VRE FN-1): > 128 µg/mL; MIC (VRE NCTC12201; Enterococcus, read-out: MIC VRE NCTC12201): > 128 µg/mL; IC50 [1]: > 25800 nM"
